Data as given in PubChem BioAssay (NCI).
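Interpolation was linear, between the two tested concentrations surrounding the appropriate level; five concentrations were tested over 48 hours in 96-well plates. Here, GI50 denotes the concentration required for 50% inhibition of growth. TGI: total growth inhibition.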

Assays:
Test in all cases: inhibition of tumour cell growth, NCI panel, 48 h
[1] = system: HS 578T breast
[2] = system: PC-3 prostate
[3] = system: OVCAR-4 ovarian
[4] = system: SK-MEL-5 melanoma
[5] = system: HCT-15 colon
[6] = system: RXF 393 renal
[7] = system: UO-31 renal
[8] = system: NCI-H522 lung
[9] = system: SF-295 CNS
[10] = system: CAKI-1 renal
[11] = system: HOP-62 NSCLC
[12] = system: SNB-19 CNS
[13] = system: CCRF-CEM leukemia
[14] = system: COLO 205 colon
[15] = system: NCI-H226 lung
[16] = system: U251 CNS
[17] = system: LOX IMVI melanoma
[18] = system: MOLT-4 leukemia
[19] = system: SR leukemia
[20] = system: UACC-62 melanoma
[21] = system: HL-60(TB) leukemia
[22] = system: IGROV1 ovarian
[23] = system: SNB-75 CNS
[24] = system: MDA-MB-435
[25] = system: ACHN renal
[26] = system: SW-620 colon
[27] = system: SN12C renal
[28] = system: RPMI-8226 leukemia

For `COc1ccc(/C=C2/CCc3cc4ccc(OC)cc4[o+]c32)c(O)c1`, the GI50 [1] was 4.28 µM, the TGI [1] was 34.5 µM and the GI50 [2] was 2.74 µM. It also gave a TGI [2] of 16.2 µM, a GI50 [3] of 5.45 µM and a TGI [3] of 20.6 µM. It also gave a GI50 [4] of 14 µM, a TGI [4] of 41.1 µM and a GI50 [5] of 2.25 µM. For the same compound, the TGI [5] was 6.03 µM, the GI50 [6] was 7.08 µM and the TGI [6] was 24.6 µM. The GI50 [7] was 2.39 µM, the TGI [7] was 8.04 µM and the GI50 [8] was 12.7 µM. The TGI [8] was 30.5 µM, the GI50 [9] was 16.3 µM and the TGI [9] was 38 µM. For the same compound, the GI50 [10] was 10.7 µM, the TGI [10] was 22.5 µM and the GI50 [11] was 13.1 µM. For the same compound, the TGI [11] was 28 µM, the GI50 [12] was 8.48 µM and the TGI [12] was 25.6 µM. The GI50 [13] was 3.88 µM, the TGI [13] was over 100 µM and the GI50 [14] was 2.59 µM. The TGI [14] was 10.7 µM, the GI50 [15] was 12.3 µM and the TGI [15] was 25.7 µM. For the same compound, the GI50 [16] was 2.3 µM, the TGI [16] was 5.57 µM and the GI50 [17] was 2.12 µM. It also gave a TGI [17] of 5.02 µM, a GI50 [18] of 3.71 µM and a TGI [18] of over 100 µM. It also gave a GI50 [19] of 3.04 µM, a TGI [19] of 45.6 µM and a GI50 [20] of 5.2 µM. It also gave a TGI [20] of 19.9 µM, a GI50 [21] of 4.96 µM and a TGI [21] of 61.4 µM. For the same compound, the GI50 [22] was 2.71 µM, the TGI [22] was 27.6 µM and the GI50 [23] was 12.9 µM. For the same compound, the TGI [23] was 27.9 µM, the GI50 [24] was 1.78 µM and the TGI [24] was 3.47 µM. It also gave a GI50 [25] of 4.15 µM, a TGI [25] of 15.8 µM and a GI50 [26] of 2.23 µM. It also gave a TGI [26] of 5.09 µM, a GI50 [27] of 2.51 µM and a TGI [27] of 7.93 µM. The GI50 [28] was 3.17 µM and the TGI [28] was 12.9 µM.
